For this assay, the target named is T1, M2 muscarinic receptor (M2) (Homo sapiens, UniProt P08172).
T1 construct: gene CHRM2; full-length human receptor, cDNA from Missouri S&T cDNA Resource Center, expressed in CHO cells; membranes
T1 sequence (P08172 1-466): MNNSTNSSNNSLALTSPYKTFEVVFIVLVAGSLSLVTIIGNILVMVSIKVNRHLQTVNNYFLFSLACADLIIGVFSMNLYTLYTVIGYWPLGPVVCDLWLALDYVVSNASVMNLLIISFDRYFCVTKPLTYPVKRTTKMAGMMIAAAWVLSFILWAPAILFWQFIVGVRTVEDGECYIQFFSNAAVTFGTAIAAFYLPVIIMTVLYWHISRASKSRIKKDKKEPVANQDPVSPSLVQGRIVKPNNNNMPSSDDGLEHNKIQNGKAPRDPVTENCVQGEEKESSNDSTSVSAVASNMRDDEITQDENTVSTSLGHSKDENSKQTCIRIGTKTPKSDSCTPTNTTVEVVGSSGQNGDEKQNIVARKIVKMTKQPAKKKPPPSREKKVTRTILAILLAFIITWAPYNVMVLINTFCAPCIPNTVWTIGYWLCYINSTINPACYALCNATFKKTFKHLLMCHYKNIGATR
In words: radioligand saturation binding, CHO membranes. To be noted: labelled compound; […] h, […] °C, pH […].

As for `C[N+]1(C)[C@@H]2C[C@@H](OC(=O)[C@H](CO)c3ccccc3)C[C@H]1[C@@H]1O[C@@H]12` [[3H]N-methylscopolamine], the KD result is “equilibrium dissociation constant KD, expressed in nM, of [^3H]NMS (muscarinic)”.

The values above are taken from publication doi:10.1101/2024.10.09.617372v4, “Cholesterol differentially modulates the activity of opioid and muscarinic receptors via a common binding site” (biorxiv, 2025).
